Active and inactive are the calls of the source. No cut-off for these calls is given here.
Tests used:
[1] = test system: Lactuca sativa; test: Bleaching activity against Lactuca sativa cv. Sacramento (lettuce) seedlings assessed as bleaching ratings at 25 ppm incubated for 4 days at 25 degC under 12 hr photoperiod; type: functional
[2] = test system: Lactuca sativa; test: Bleaching activity against Lactuca sativa cv. Sacramento (lettuce) seedlings assessed as bleaching ratings at 10 ppm incubated for 4 days at 25 degC under 12 hr photoperiod; type: functional
[3] = test system: Lactuca sativa; test: Bleaching activity against Lactuca sativa cv. Sacramento (lettuce) seedlings assessed as bleaching ratings at 50 ppm incubated for 4 days at 25 degC under 12 hr photoperiod; type: functional
[4] = test system: Lactuca sativa; test: Bleaching activity against Lactuca sativa cv. Sacramento (lettuce) seedlings assessed as bleaching ratings at 5 ppm incubated for 4 days at 25 degC under 12 hr photoperiod; type: functional
[5] = test system: Lactuca sativa; test: Bleaching activity against Lactuca sativa cv. Sacramento (lettuce) seedlings assessed as bleaching ratings at 3 ppm incubated for 4 days at 25 degC under 12 hr photoperiod; type: functional
[6] = test system: Lactuca sativa; test: Bleaching activity against Lactuca sativa cv. Sacramento (lettuce) seedlings assessed as bleaching ratings at 1 ppm incubated for 4 days at 25 degC under 12 hr photoperiod; type: functional
[7] = test system: Radish; test: Reduction in chlorophyll content in Raphanus sativus cv. Osaka (radish) seedlings at 100 uM incubated for 4 days at 25 degC under 12 hr photoperiod by spectrophotometry; type: functional, organism-based
[8] = test system: Radish; test: Reduction in carotenoid content in Raphanus sativus cv. Osaka (radish) seedlings at 100 uM incubated for 4 days at 25 degC under 12 hr photoperiod; type: functional, organism-based
[9] = test system: Radish; test: Reduction in carotenoid content in Raphanus sativus cv. Osaka (radish) seedlings at 10 uM incubated for 4 days at 25 degC under dark conditions; type: functional, organism-based
[10] = test system: Radish; test: Induction of phytoene accumulation in Raphanus sativus cv. Osaka (radish) seedlings at 10 to 100 uM incubated for 4 days at 25 degC under dark conditions; type: functional, organism-based
[11] = test system: Radish; test: Reduction in chlorophyll content in Raphanus sativus cv. Osaka (radish) seedlings at 10 uM incubated for 4 days at 25 degC under 12 hr photoperiod by spectrophotometry; type: functional; design: scale not given: the % may be the effect or the level left
[12] = test system: Radish; test: Reduction in beta-carotene content in Raphanus sativus cv. Osaka (radish) seedlings at 10 to 100 uM incubated for 4 days at 25 degC under dark conditions; type: functional, organism-based
[13] = test system: Radish; test: Reduction in chlorophyll content in Raphanus sativus cv. Osaka (radish) seedlings at 10 to 100 uM incubated for 4 days at 25 degC under 12 hr photoperiod by spectrophotometry; type: functional, organism-based
[14] = test system: Radish; test: Reduction in chlorophyll content in Raphanus sativus cv. Osaka (radish) seedlings at 10 uM incubated for 4 days at 25 degC under dark conditions; type: functional, organism-based
[15] = test system: Radish; test: Reduction in carotenoid content in Raphanus sativus cv. Osaka (radish) seedlings at 10 uM incubated for 4 days at 25 degC under 12 hr photoperiod; type: functional; design: scale not given: the % may be the effect or the level left
[16] = test system: Radish; test: Reduction in carotenoid content in Raphanus sativus cv. Osaka (radish) seedlings at 10 to 100 uM incubated for 4 days at 25 degC under 12 hr photoperiod; type: functional, organism-based
[17] = test system: Radish; test: Induction of phytoene accumulation in Raphanus sativus cv. Osaka (radish) seedlings at 50 uM incubated for 4 days at 25 degC under dark conditions relative to untreated control; type: functional
[18] = test system: Radish; test: Reduction in phytoene accumulation in Raphanus sativus cv. Osaka (radish) seedlings at 100 uM incubated for 4 days at 25 degC under dark conditions relative to untreated control; type: functional, organism-based

| Structure (SMILES) | Activity [1] | Activity [2] | Activity [3] | Activity [4] | Activity [5] | Activity [6] | further results |
| --- | --- | --- | --- | --- | --- | --- | --- |
| C=CCSc1nncn1-c1ccccc1 | 0 | 0 | 0 | – | – | – | – |
| c1ccc(CSc2nncn2-c2ccccc2)cc1 | 1 | 1 | 2 | – | – | – | – |
| COCSc1nncn1-c1ccccc1 | 0 | 0 | 0 | – | – | – | – |
| C#CCSc1nncn1-c1ccccc1 | 3 | 1 | 4 | 0 | 0 | 0 | – |
| CCSc1nncn1-c1ccccc1 | 2 | 1 | 3 | – | – | – | – |
| CSc1nncn1-c1ccccc1 | 0 | 0 | 0 | – | – | – | – |
| C#CCSc1nncn1-c1ccc(OCC)cc1 | 3 | 3 | – | 2 | 1 | 0 | – |
| C#CCSc1nncn1-c1ccc(C)cc1 | 3 | 3 | – | 3 | 1 | 0 | – |
| C#CCSc1nncn1-c1cccc(C(F)(F)F)c1 | 3 | 3 | – | 2 | 1 | 0 | – |
| C#CCSc1nncn1-c1ccccc1Cl | 0 | 0 | – | 0 | 0 | 0 | Activity [7]: inactive; Activity [8]: inactive |
| Sc1nncn1-c1ccccc1 | 0 | 0 | 0 | – | – | – | – |
| CCCCSc1nncn1-c1ccccc1 | 1 | 0 | 2 | – | – | – | – |
| C#CCSc1nncn1-c1ccc(Cl)c(Cl)c1 | 4 | 4 | – | 3 | 2 | 0 | – |
| CCCS(=O)(=O)c1nncn1-c1ccccc1 | 0 | 0 | 0 | – | – | – | – |
| C#CCSc1nncn1-c1cccc(Cl)c1 | 4 | 3 | – | 3 | 2 | 0 | Activity [9]: Active; Activity [10]: Active; Activity [11]: 60%; Activity [12]: Active; Activity [13]: Active; Activity [14]: Active; Activity [15]: 60%; Activity [16]: Active |
| CCCSc1nncn1-c1ccccc1 | 2 | 1 | 4 | – | – | – | – |
| C#CCSc1nncn1-c1ccc(C(F)(F)F)cc1 | 3 | 3 | – | 2 | 1 | 0 | – |
| C#CCSc1nncn1-c1ccc(Cl)cc1 | 4 | 3 | – | 2 | 1 | 0 | Activity [9]: Active; Activity [10]: Active; Activity [11]: 60%; Activity [12]: Active; Activity [13]: Active; Activity [14]: Active; fold change (FC) [17]: 150; Activity [18]: Active; Activity [15]: 60%; Activity [16]: Active |

Reference: ChEMBL document CHEMBL3045588, “Synthesis and Bleaching Activity of 3-Propargylthio-4-(substituted phenyl)-4H-1, 2, 4-triazoles” (1995)
